Measurements published in patent US20070027175A1, “Antineoplastic activities of ellipticine and its derivatives” (priority 2005, published 2007).
Entries after “also recorded” stand apart in the source; their conditions may differ.

Tests used:
[1] = test system: myeloma cell lines ARK, KMS11, RPMI 8226, and U266; assay: In vitro screening of DTP compounds on myeloma cell lines (CellTiter-Glo); format: cell-based, human; set-up: effect on myeloma cell growth among tested ellipticine derivatives: dose or concentration left out as unconfirmed
Experimental: Eight myeloma cell lines were contacted with the antineoplastic agents to be tested in ninety six well culture plates. […]
Myeloma cell lines were maintained at >90% viability at 37° C. and 5% CO2. Cells were diluted to 20,000 cells/ml in fresh medium. A 50-μl aliquot of cell suspension was seeded in 96-well tissue culture plates to final cell counts of 1,000 cells/well. All compounds obtained from NCI's Developmental Therapeutics Program (DTP compounds) were dissolved in 100% dimethylsulfoxide (DMSO) (Sigma-Aldrich, St. Louis, Mo.) at 1 mg/ml and further diluted in fresh medium to 1 μg/ml. Each compound (50-μl aliquots) was distributed to a well containing 1,000 myeloma cells. Each plate included controls with addition of only medium or only DMSO (0.5% final concentration). All experiments were conducted in triplicate.
Using CellTiter-Glo Luminescent Assay kit (Promega, Madison, Wis.) according to manufacturer's instructions, cell viability was assayed every 24 hours after addition of DTP compound for 5 days. Briefly, the CellTiter-Glo substrate was dissolved in buffer, and 100 μl was added to each well. […] The statistic sampling distribution for each compound per cell line was based on sample of n=15 measurements.
Other ellipticine derivatives from the DTP (at 0.5 mM final concentration) were used to screen the same four myeloma cell lines.

[2] = test system: non myeloma cancer cell lines HEL, HL-60, k562, MEG01, THP1, Hela, G401, Du145, sw480, sw620, saoS2, MG63; assay: Overall cell growth inhibition, non myeloma cancer cell lines (CellTiter-Glo); format: cell-based; set-up: dose or concentration left out as unconfirmed; conditions: 5 days
Experimental: Five non myeloma cancer cell lines, HEL (▮), HL-60 (▴), k562 (X), MEG01 ( ? ) and THP1 (▪) were exposed to NSC 388258 over a period of 5 days. The dose was set at 0.2 mM. […] The results obtained from these controls are pooled together in the figure (●).
Seven non myeloma cancer cell lines, Hela (▮), G401 (▴), Du145 (X), sw480, (*) sw620 (▪), SaoS2 (I) and MG63 (−) were exposed to NSC 388258 over a period of 5 days. The dose was set at 0.2 mM. […] The results obtained from these controls are pooled together in the figure (●).
To test the overall cell growth inhibition of NSC 338258, twelve non myeloma cancer cell lines, HEL, HL-60, k562, MEG01, THP1, Hela, G401, Du145, sw480, sw620, saoS2, and MG63, were exposed to the compound in 96 well cell culture plates for a period of five days.

Cc1c2ccncc2c(C)c2c1[nH]c1ccc(OCCN(C)C)cc12 [NSC 338258, ellipticine, 9-dimethyl amino-ethoxy-] was tested, and the “inhibition of cell viability in four myeloma cell lines” value ([1]; 0.5 mg/ml, every 24 hours over 5 days) was “most significantly inhibited cell viability; also recorded: significant anti-myeloma effect”, the “effect on myeloma cell growth among tested ellipticine derivatives” value ([1]; four myeloma cell lines) was “best among the tested ellipticine derivatives” and the “effective invitro dosage (cell growth inhibition)” value ([1]; myeloma cell lines) was 0.2 µM. For the same compound, the “activity against non-myeloma cell lines” value [2] was “effective against non-myeloma cell lines”.
